Reference: US20250195483A1, “SPIRO PIPERIDINE DERIVATIVES AS INHIBITORS OF APOL1 AND METHODS OF USING SAME” (Vertex Pharmaceuticals Incorporated, priority 2022, published 2025)

Target: T1, APOL1 (Homo sapiens, UniProt O14791)
T1 sequence (O14791 1-398): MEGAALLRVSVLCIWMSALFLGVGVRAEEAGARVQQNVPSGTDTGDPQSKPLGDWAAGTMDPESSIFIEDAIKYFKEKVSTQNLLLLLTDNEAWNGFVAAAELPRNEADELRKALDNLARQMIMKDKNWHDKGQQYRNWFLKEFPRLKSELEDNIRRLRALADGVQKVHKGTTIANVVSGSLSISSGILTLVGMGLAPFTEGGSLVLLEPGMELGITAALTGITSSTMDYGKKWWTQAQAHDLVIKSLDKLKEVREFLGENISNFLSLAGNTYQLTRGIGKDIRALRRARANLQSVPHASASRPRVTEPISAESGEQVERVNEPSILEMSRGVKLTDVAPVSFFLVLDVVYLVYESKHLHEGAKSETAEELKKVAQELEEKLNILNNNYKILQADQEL
Assay: MultiTox-Fluor Multiplex Cytotoxicity Assay, tet-inducible APOL1 T-REx-HEK293 cells (G0, G1 or G2 clone not specified for Table 20)
Type: cell-based
Conditions: tet-induced, 24 hours with compound, ratio of dead to live cells, read-out: IP50 (i.e., IC50 for cell proliferation)
Outline: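 HEK293 T-REx cells with tet-inducible APOL1 G0, G1 or G2 clone, 23,400/well, treated with tetracycline plus compound (top 10 μM, 10-point 3-fold, duplicate) for 24 h at 37° C. MultiTox-Fluor dead/live fluorescence ratio, normalized to no-tet (100% viability) and 50 ng/mL tet (0% viability) controls, then curve-fitted.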

| Compound | IC50 |
| --- | --- |
| NC(=O)C1OC2(CCN(Cc3cn[nH]c3)CC2)c2cc(Cl)ccc21 (stereo not drawn) [Compound 226, 5-chloro-1′-(1H-pyrazol-4-ylmethyl)spiro[1H-isobenzofuran-3,4′-piperidine]-1-carboxamide] | ≤ 50 nM |
| COC(=O)c1ccc(CN2CCC3(CC2)OC(C(N)=O)c2ccc(Cl)cc23)nc1 (stereo not drawn) [Compound 250] | 50 to 500 nM |
| C[C@H]1C[C@@]2(CCN1Cc1cn(CC(O)C(C)(C)O)nn1)OCCc1ccc(Cl)cc12 (stereo partly drawn) [Compound 156] | ≤ 50 nM |
| CN(C)C(=O)Cn1cc(CN2CCC3(CC2)OC(C(N)=O)c2ccc(Cl)cc23)cn1 (stereo not drawn) [Compound 284] | 50 to 500 nM |
| CS(=O)(=O)CCn1cc(CN2CCC3(CC2)CC(O)c2ccc(Cl)cc23)cn1 (stereo not drawn) [Compound 302, 5-chloro-1′-[[1-(2-methylsulfonylethyl)pyrazol-4-yl]methyl]spiro[indane-3,4′-piperidine]-1-ol] | 50 to 500 nM |
| C[C@H]1C[C@@]2(CCN1Cc1cn(CCCn3ccc(=O)[nH]c3=O)nn1)OCCc1ccc(Cl)cc12 [Compound 179] | ≤ 50 nM |
| Cc1nnc(O)c(Cn2cc(CN3CC[C@]4(C[C@@H]3C)OCCc3ccc(Cl)cc34)nn2)c1C [Compound 178] | 50 to 500 nM |
| COCCn1cc(CN2CCC3(CC2)OC(C(N)=O)c2ccc(Cl)cc23)cn1 (stereo not drawn) [Compound 236] | 50 to 500 nM |
| NC(=O)C1OC2(CCN(Cc3ccc(S(N)(=O)=O)cc3F)CC2)c2cc(Cl)ccc21 (stereo not drawn) [Compound 243] | 50 to 500 nM |
| C[C@H]1C[C@@]2(CCN1Cc1cn(C(CO)CO)nn1)OCCc1ccc(Cl)cc12 [Compound 151] | ≥ 500 nM |
| Cc1ccc2c(c1)C1(CCN(Cc3cnn(C)c3)CC1)SC2 [Compound 304, 5-methyl-1′-[(1-methylpyrazol-4-yl)methyl]spiro[1H-2-benzothiophene-3,4′-piperidine]] | ≥ 500 nM |
| Cc1c(CN2CCC3(CC2)OC(C(N)=O)c2ccc(Cl)cc23)cnn1C (stereo not drawn) [Compound 275] | ≥ 500 nM |
| Cc1ccc2c(c1)[C@]1(CCN(Cc3cn[nH]c3)[C@@H](C)C1)OCC2 [Compound 96] | ≤ 50 nM |
| Cn1cc(CN2CCC3(CC2)OCCc2ccc(C(F)(F)F)cc23)cn1 [Compound 128] | ≥ 500 nM |
| C[C@H]1C[C@@]2(CCN1Cc1cn(CC(O)CO)nn1)OCCc1ccc(Cl)cc12 (stereo partly drawn) [Compound 152] | ≤ 50 nM |
| CC1CN(Cc2cnn(C)c2)CCC12OCCc1ccc(Cl)cc12 (stereo not drawn) [Compound 140, 7-chloro-3′-methyl-1′-[(1-methylpyrazol-4-yl)methyl]spiro[isochromane-1,4′-piperidine]] | ≥ 500 nM |
| C[C@H]1C[C@@]2(CCN1Cc1cnn(C)c1)OCC(O)c1ccc(Cl)cc12 (stereo partly drawn) [Compound 134] | ≤ 50 nM |
| Cc1ccc2c(c1)C1(CCN(Cc3cnn(CCO)c3)[C@@H](C)C1)OCC2 (stereo partly drawn) [Compound 99] | ≥ 500 nM |
| C[C@H]1C[C@@]2(CCN1Cc1ccccn1)OCCc1ccc(Cl)cc12 [Compound 138] | ≥ 500 nM |
| CC(C)(C)c1ncc(CN2CCC3(CC2)OC(C(N)=O)c2ccc(Cl)cc23)cn1 (stereo not drawn) [Compound 267] | ≥ 500 nM |
| NC(=O)C1OC2(CCN(Cc3cnn(-c4ccccc4)c3)CC2)c2cc(Cl)ccc21 (single isomer, unassigned) [Compound 193, 5-chloro-1′-[(1-phenylpyrazol-4-yl)methyl]spiro[1H-isobenzofuran-3,4′-piperidine]-1-carboxamide] | 50 to 500 nM |
| CNC(=O)C1OC2(CCN(Cc3cnn(-c4cnc(C)nc4)c3)CC2)c2cc(Cl)ccc21 (stereo not drawn) [Compound 211, 5-chloro-N-methyl-1′-[[1-(2-methylpyrimidin-5-yl)pyrazol-4-yl]methyl]spiro[1H-isobenzofuran-3,4′-piperidine]-1-carboxamide] | ≤ 50 nM |
| NC(=O)C1OC2(CCN(Cc3ccc(F)c(S(N)(=O)=O)c3)CC2)c2cc(Cl)ccc21 (stereo not drawn) [Compound 274] | ≥ 500 nM |

| Compound | IC50 |
| --- | --- |
| NC(=O)C1OC2(CCN(Cc3cnn(-c4ccccc4)c3)CC2)c2cc(C(F)(F)F)ccc21 (stereo not drawn) [Compound 197] | ≤ 50 nM |
| COc1ccc(CN2CCC3(CC2)C(=O)Nc2ccc(Cl)cc23)cc1F [Compound 8] | 50 to 500 nM |
| CC(=O)N1CC2(CCN(Cc3cnn(C)c3)CC2)c2cc(Cl)ccc21 [Compound 314, 1-[5-chloro-1′-[(1-methylpyrazol-4-yl)methyl]spiro[indoline-3,4′-piperidine]-1-yl]ethenone] | ≥ 500 nM |
| NC(=O)C1OC2(CCN(Cc3cnccn3)CC2)c2cc(Cl)ccc21 (stereo not drawn) [Compound 272] | ≥ 500 nM |
| C[C@H]1C[C@@]2(CCN1Cc1cn(C)cn1)OCCc1ccc(Cl)cc12 [Compound 108] | ≥ 500 nM |
| C[C@H]1C[C@@]2(CCN1Cc1cn(CC(O)C(C)(C)O)nn1)OCCc1ccc(Cl)cc12 (stereo partly drawn) [Compound 157] | ≤ 50 nM |
| CS(=O)(=O)CCn1cc(CN2CCC3(CC2)OC(C(N)=O)c2ccc(Cl)cc23)cn1 (stereo not drawn) [Compound 214] | ≤ 50 nM |
| CCO/N=C(\C)c1ccc(CN2CCC3(CC2)C(=O)Nc2ccc(Cl)cc23)cn1 [Compound 12] | 50 to 500 nM |
| COCn1cc(CN2CC[C@]3(C[C@@H]2C)OCCc2ccc(Cl)cc23)nn1 [Compound 155] | 50 to 500 nM |
| CC(C)n1cc(Cn2cc(CN3CC[C@]4(C[C@@H]3C)OCCc3ccc(Cl)cc34)nn2)c(=O)[nH]c1=O [Compound 169] | ≤ 50 nM |
| NC(=O)C1OC2(CCN(Cc3cc4n(n3)CCOC4)CC2)c2cc(Cl)ccc21 (stereo not drawn) [Compound 249] | ≥ 500 nM |
| Cc1ccc2c(c1)C1(CCN(Cc3cnn(CCO)c3)CC1)C(=O)N2 [Compound 26] | ≥ 500 nM |
| C[C@H]1C[C@@]2(CCN1Cc1cn(C3CN(S(C)(=O)=O)C3)nn1)OCCc1ccc(Cl)cc12 [Compound 150] | ≤ 50 nM |
| O=C1N(CCO)c2ccc(Cl)cc2C12CCN(Cc1cn[nH]c1)CC2 [Compound 46] | 50 to 500 nM |
| Cc1cc2ncc(CN3CCC4(CC3)OC(C(N)=O)c3ccc(Cl)cc34)cn2n1 (stereo not drawn) [Compound 231] | 50 to 500 nM |
| Cc1ccc2c(c1)C1(CCN(Cc3cn(CCS(C)(=O)=O)nn3)[C@@H](C)C1)OC2(C)C (single isomer, unassigned) [Compound 290, (2′S)-2′,3,3,6-tetramethyl-1′-((1-(2-(methylsulfonyl)ethyl)-1H-1,2,3-triazol-4-yl)methyl)-3H-spiro[isobenzofuran-1,4′-piperidine]] | ≥ 500 nM |
| C[C@H]1CC2(CCN1Cc1cnn(CCS(C)(=O)=O)c1)CC(O)c1ccc(Cl)cc12 (single isomer, unassigned) [Compound 307, (2′S)-5-chloro-2′-methyl-1′-[[1-(2-methylsulfonylethyl)pyrazol-4-yl]methyl]spiro[indane-3,4′-piperidine]-1-ol] | ≤ 50 nM |
| NC(=O)C1OC2(CCN(Cc3cnn(CC(O)C4(O)CCC4)c3)CC2)c2cc(Cl)ccc21 (stereo not drawn) [Compound 280, 5-chloro-1′-[[1-[2-hydroxy-2-(1-hydroxycyclobutyl)ethyl]pyrazol-4-yl]methyl]spiro[1H-isobenzofuran-3,4′-piperidine]-1-carboxamide] | ≤ 50 nM |
| NC(=O)C1OC2(CCN(Cc3cnn4c3NCCC4)CC2)c2cc(Cl)ccc21 (stereo not drawn) [Compound 254] | ≥ 500 nM |
| C[C@H]1C[C@@]2(CCN1Cc1ccc3c(c1)n(C)c(=O)n3C)OCCc1ccc(Cl)cc12 [Compound 107] | ≤ 50 nM |
| C[C@H]1C[C@@]2(CCN1Cc1cnn(CCS(C)(=O)=O)c1)OC[C@H](O)c1ccc(Cl)cc12 [Compound 132] | ≤ 50 nM |
| C[C@H]1C[C@@]2(CCN1Cc1ncc[nH]1)OCCc1ccc(Cl)cc12 [Compound 110] | 50 to 500 nM |
